Measurements reported in publication PMC10745491 (Frontiers in Cellular Neuroscience, 2023).
pEC50: −log10 of the molar value. Where two headings read alike, the source gives them in different places. Peptide text beside a SMILES is read from it.

Experiments:
brain OXTR = details: in vivo
ACE = ACE (Homo sapiens, UniProt P12821)
COX2 = COX2 (Homo sapiens, UniProt P35354)
[1] = biological target: xanthine oxidase / superoxide O2-scavenging (Bos taurus, UniProt P80457)
N muscle-type = N muscle-type (Homo sapiens, UniProt P02708+P07510+Q07001); format: binding
N muscle-type, sequence (P11230 24-501): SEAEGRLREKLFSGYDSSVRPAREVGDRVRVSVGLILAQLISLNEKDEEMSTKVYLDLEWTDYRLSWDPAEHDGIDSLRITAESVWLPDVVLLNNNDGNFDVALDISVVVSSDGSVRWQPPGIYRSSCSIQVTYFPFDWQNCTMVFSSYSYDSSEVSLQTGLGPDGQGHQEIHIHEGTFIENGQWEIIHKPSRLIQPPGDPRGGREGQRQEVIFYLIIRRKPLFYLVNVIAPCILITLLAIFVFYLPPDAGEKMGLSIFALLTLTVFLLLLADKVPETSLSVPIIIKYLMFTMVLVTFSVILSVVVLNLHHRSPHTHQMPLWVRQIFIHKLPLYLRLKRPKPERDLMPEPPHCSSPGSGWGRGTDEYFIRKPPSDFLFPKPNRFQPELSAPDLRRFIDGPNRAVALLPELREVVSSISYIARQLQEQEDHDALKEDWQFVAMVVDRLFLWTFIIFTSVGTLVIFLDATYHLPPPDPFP
N muscle-type, sequence (P07510 23-517): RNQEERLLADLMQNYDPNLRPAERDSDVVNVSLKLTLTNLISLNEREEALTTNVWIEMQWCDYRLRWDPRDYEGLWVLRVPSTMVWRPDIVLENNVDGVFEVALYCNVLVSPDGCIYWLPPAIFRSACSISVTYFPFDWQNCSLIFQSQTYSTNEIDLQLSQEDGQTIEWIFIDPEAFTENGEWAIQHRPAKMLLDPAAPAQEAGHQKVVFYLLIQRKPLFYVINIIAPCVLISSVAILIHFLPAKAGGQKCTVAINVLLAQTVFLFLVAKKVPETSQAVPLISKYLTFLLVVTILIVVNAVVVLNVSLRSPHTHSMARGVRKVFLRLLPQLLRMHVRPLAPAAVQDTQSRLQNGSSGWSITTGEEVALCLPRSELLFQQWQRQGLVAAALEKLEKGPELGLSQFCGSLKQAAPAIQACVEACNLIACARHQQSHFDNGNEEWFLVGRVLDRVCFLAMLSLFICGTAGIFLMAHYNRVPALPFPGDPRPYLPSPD
N muscle-type, sequence (P02708 21-457): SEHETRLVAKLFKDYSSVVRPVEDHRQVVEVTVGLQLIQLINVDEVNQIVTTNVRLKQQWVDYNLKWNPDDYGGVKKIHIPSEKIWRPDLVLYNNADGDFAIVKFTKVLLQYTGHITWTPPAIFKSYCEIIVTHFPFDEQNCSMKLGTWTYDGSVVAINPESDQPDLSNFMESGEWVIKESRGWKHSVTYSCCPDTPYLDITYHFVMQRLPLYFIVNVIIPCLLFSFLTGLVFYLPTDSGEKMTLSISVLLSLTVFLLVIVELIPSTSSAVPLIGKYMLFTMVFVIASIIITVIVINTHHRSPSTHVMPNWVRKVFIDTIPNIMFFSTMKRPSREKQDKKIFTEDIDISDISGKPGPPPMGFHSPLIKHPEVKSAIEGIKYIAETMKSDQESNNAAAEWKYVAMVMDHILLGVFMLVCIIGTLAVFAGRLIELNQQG
N muscle-type, sequence (Q07001 22-517): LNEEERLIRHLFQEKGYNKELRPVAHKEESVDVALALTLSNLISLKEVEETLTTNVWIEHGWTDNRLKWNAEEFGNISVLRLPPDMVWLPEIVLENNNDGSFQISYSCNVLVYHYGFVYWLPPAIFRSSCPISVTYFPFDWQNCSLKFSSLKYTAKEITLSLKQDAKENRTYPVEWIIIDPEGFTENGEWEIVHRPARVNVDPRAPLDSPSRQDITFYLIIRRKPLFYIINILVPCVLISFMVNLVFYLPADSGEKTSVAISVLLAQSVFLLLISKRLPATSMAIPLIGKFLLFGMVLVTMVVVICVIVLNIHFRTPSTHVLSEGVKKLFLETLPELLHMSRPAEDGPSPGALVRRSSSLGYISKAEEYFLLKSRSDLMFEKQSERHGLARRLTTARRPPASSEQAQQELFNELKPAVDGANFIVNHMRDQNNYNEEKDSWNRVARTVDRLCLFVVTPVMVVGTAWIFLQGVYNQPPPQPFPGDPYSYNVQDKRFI

alpha 2A = alpha 2A (Homo sapiens, UniProt P08913)
sst4 = sst4 (Homo sapiens, UniProt P31391); format: binding
H3 = H3 (Homo sapiens, UniProt Q9Y5N1)
MAO-B enzyme = MAO-B enzyme (Homo sapiens, UniProt P27338)
MAO-B enzyme, sequence (P27338 whole entry): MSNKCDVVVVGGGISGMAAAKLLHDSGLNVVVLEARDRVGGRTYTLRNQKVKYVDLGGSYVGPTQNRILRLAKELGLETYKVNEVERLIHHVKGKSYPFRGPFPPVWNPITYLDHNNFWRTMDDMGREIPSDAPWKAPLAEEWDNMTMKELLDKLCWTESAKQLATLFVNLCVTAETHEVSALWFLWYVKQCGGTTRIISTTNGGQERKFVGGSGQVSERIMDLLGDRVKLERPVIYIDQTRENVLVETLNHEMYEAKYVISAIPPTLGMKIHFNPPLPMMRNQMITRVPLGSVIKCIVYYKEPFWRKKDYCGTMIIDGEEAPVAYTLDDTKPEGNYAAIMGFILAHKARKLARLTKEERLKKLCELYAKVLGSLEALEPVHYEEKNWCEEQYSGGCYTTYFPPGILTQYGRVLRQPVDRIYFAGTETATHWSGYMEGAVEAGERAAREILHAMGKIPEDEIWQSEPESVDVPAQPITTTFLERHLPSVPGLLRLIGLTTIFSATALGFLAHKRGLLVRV

5-HT2A = 5-HT2A (Homo sapiens, UniProt P28223); experiment: radioligand binding assay
M2 = M2 (Homo sapiens, UniProt P08172)
M2, sequence (P08172 whole entry): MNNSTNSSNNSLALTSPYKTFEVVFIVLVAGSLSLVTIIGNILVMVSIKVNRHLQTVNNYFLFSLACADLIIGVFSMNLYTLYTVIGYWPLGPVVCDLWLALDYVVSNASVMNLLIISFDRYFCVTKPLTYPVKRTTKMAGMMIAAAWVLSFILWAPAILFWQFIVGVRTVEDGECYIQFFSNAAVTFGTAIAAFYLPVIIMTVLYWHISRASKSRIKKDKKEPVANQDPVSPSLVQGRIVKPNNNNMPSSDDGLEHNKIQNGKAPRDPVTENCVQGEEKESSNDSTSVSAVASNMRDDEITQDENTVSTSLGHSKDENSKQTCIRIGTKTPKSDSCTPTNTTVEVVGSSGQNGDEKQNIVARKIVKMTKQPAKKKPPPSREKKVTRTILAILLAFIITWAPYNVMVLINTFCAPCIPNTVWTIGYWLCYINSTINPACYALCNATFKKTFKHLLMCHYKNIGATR

PCP = experiment: radioligand binding assay; design: species or system human
mu = mu (Homo sapiens, UniProt P35372)
rat OXTR [2] = biological target: T1, rat OXTR (Rattus norvegicus, UniProt P70536)
5-HT transporter = 5-HT transporter (Homo sapiens, UniProt P31645)
FP = FP (Homo sapiens, UniProt P43088); format: binding
FP, sequence (P43088 whole entry): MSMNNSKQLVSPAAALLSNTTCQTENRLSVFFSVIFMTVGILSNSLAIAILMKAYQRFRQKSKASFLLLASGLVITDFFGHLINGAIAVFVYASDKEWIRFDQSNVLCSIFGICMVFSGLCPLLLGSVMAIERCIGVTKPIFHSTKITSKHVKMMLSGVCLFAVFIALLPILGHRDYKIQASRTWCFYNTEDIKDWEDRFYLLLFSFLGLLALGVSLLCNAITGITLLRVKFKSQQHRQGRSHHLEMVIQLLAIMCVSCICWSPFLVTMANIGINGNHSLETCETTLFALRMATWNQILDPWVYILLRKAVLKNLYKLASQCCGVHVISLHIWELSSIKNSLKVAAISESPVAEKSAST

AT1 = AT1 (Homo sapiens, UniProt P30556); format: binding
human OXTR [3] = biological target: T2, human OXTR (Homo sapiens, UniProt P30559)
Ca2+ channel = format: binding, human
D1 = D1 (Homo sapiens, UniProt P21728)
[4] = rat
NE transporter = NE transporter (Homo sapiens, UniProt P23975)
H1 = H1 (Homo sapiens, UniProt P35367)
GSK3beta = GSK3beta (Homo sapiens, UniProt P49841)
human OXTR [5] = biological target: T2, human OXTR; experiment: cell-based
rat OXTR [6] = biological target: T1, rat OXTR; experiment: cell-based
beta 1 = beta 1 (Homo sapiens, UniProt P08588)
M4 = M4 (Homo sapiens, UniProt P08173); format: binding
M4, sequence (P08173 whole entry): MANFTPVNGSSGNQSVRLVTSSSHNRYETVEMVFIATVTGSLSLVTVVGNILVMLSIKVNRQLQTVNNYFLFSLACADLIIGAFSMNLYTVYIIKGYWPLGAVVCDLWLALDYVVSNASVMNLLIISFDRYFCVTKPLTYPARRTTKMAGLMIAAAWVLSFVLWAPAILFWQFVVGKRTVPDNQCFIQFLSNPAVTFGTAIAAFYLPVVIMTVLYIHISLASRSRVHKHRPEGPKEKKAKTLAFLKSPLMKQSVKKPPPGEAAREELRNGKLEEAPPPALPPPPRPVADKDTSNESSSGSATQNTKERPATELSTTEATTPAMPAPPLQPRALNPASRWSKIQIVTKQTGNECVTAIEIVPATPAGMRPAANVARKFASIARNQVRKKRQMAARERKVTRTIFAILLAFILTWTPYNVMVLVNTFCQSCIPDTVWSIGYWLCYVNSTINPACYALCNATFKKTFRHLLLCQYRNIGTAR

mPFC transcriptome = details: rat, in vivo, 0.07 mg/kg
HIV-1 protease = HIV-1 protease (Human immunodeficiency virus type 1 group M subtype B, UniProt P04585)
alpha 1A = alpha 1A (Homo sapiens, UniProt P35348); format: binding
MAO-A = MAO-A (Homo sapiens, UniProt P21397); format: biochemical
[7] = test system: PFC layer 5 pyramidal neurons; details: rat, in vivo
A3 = A3 (Homo sapiens, UniProt P0DMS8)

ACE, sequence (P12821 30-1306): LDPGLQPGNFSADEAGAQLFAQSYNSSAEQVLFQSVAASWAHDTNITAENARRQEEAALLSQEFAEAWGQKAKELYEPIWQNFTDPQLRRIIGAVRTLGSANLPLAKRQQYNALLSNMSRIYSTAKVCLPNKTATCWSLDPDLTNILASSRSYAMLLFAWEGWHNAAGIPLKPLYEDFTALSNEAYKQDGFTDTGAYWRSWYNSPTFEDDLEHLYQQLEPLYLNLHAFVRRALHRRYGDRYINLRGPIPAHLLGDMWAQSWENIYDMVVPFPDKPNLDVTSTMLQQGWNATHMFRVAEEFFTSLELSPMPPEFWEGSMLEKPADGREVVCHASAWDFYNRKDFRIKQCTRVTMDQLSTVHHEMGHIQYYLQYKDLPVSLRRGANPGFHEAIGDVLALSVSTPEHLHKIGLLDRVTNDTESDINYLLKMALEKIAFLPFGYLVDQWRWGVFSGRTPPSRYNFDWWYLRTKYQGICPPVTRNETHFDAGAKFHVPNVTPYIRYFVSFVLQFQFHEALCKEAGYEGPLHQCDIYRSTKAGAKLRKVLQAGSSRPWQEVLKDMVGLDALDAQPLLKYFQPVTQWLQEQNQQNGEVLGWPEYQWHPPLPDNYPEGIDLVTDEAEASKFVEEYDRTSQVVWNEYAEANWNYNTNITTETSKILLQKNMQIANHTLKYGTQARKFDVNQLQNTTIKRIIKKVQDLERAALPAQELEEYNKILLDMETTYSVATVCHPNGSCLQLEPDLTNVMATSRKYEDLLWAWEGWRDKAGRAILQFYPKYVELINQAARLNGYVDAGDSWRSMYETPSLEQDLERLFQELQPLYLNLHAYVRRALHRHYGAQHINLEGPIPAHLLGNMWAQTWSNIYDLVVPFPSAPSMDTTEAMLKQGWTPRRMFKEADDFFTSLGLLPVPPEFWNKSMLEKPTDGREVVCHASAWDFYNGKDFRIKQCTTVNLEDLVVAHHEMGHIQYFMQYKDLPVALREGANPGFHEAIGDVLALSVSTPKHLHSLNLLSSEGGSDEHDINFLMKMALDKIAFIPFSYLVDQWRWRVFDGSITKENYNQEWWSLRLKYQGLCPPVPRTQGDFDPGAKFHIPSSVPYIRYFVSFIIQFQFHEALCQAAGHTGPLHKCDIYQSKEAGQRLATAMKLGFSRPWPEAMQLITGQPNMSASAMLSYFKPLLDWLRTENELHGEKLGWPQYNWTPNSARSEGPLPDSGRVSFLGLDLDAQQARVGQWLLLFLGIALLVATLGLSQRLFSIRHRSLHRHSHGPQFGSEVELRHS

In the case of `CC[C@H](C)[C@@H]1NC(=O)[C@H](Cc2ccc(O)cc2)NC(=O)CNC(=O)CC[C@@H](C(=O)N2CC(F)C[C@H]2C(=O)N[C@@H](CC(C)C)C(=O)NCC(N)=O)NC(=O)[C@H](CC(N)=O)NC(=O)[C@H](CCC(N)=O)NC1=O` (stereo partly drawn) [RO6958375] (HELM PEPTIDE1{G.Y.I.Q.N.E.[O=C([C@@H]1CC(F)CN1[*:1])[*:2]].L.G.[am]}$PEPTIDE1,PEPTIDE1,1:R1-6:R3$$$V2.0), the “time of full activation of rat OXTR post-dose” value (brain OXTR; sc) was 4.3 h, the “CSF concentration relative to in vitro OXTR EC50” value (brain OXTR; rat) was “more than 10 fold” and the “brain OXTR activation” value (brain OXTR; rat) was 0%. For the same compound, the “brain OXTR activation” value (brain OXTR; rat, sc, 0.001 mg/kg) was 10%, the “brain OXTR activation” value (brain OXTR; rat, sc, 0.07 mg/kg) was 72% and the “% Inhibition of Control Specific Binding” value (ACE) was -28%. The “Mean / % of Control Specific Binding” value (ACE) was 128.2%, the “% Inhibition of Control Specific Binding” value (COX2) was 15% and the “Mean / % of Control Specific Binding” value (COX2) was 85.3%. For the same compound, the “% Inhibition of Control Specific Binding” value [1] was 8%, the “Mean / % of Control Specific Binding” value [1] was 92.1% and the “% Inhibition of Control Specific Binding” value (N muscle-type) was 5%. For the same compound, the “Mean / % of Control Specific Binding” value (N muscle-type) was 94.7%, the “% Inhibition of Control Specific Binding” value (alpha 2A) was -7% and the “Mean / % of Control Specific Binding” value (alpha 2A) was 106.7%. The “% Inhibition of Control Specific Binding” value (sst4) was 17%, the “Mean / % of Control Specific Binding” value (sst4) was 82.8% and the “% Inhibition of Control Specific Binding” value (H3) was -6%. For the same compound, the “Mean / % of Control Specific Binding” value (H3) was 105.9%, the “% Inhibition of Control Specific Binding” value (MAO-B enzyme) was -14% and the “Mean / % of Control Specific Binding” value (MAO-B enzyme) was 113.8%. For the same compound, the “% Inhibition of Control Specific Binding” value (5-HT2A) was 9%, the “Mean / % of Control Specific Binding” value (5-HT2A) was 90.6% and the “% Inhibition of Control Specific Binding” value (M2) was -14%. For the same compound, the “Mean / % of Control Specific Binding” value (M2) was 113.8%, the “% Inhibition of Control Specific Binding” value (PCP) was -6% and the “Mean / % of Control Specific Binding” value (PCP) was 105.5%. The “% Inhibition of Control Specific Binding” value (mu) was 2%, the “Mean / % of Control Specific Binding” value (mu) was 98.2% and the “agonist efficacy and potency relative to oxytocin on rat OXTR” value (rat OXTR [2]) was “full OXTR agonist and equipotent to oxytocin”. For the same compound, the “% Inhibition of Control Specific Binding” value (5-HT transporter) was -4%, the “Mean / % of Control Specific Binding” value (5-HT transporter) was 103.5% and the “% Inhibition of Control Specific Binding” value (FP) was 3%. For the same compound, the “Mean / % of Control Specific Binding” value (FP) was 96.9%, the “% Inhibition of Control Specific Binding” value (AT1) was -1% and the “Mean / % of Control Specific Binding” value (AT1) was 101.4%. For the same compound, the “activation of human OXTR” value (human OXTR [3]) was “fully activated”, the “% Inhibition of Control Specific Binding” value (sigma) was 4% and the “Mean / % of Control Specific Binding” value (sigma) was 96.2%. The “% Inhibition of Control Specific Binding” value (Ca2+ channel) was -36%, the “Mean / % of Control Specific Binding” value (Ca2+ channel) was 136% and the “% Inhibition of Control Specific Binding” value (D1) was -2%. For the same compound, the “Mean / % of Control Specific Binding” value (D1) was 102.2%, the plasma protein binding [4] was “negligible” and the “% Inhibition of Control Specific Binding” value (NE transporter) was 3%. For the same compound, the “Mean / % of Control Specific Binding” value (NE transporter) was 97.2%, the “% Inhibition of Control Specific Binding” value (H1) was -1% and the “Mean / % of Control Specific Binding” value (H1) was 100.9%. For the same compound, the “% Inhibition of Control Specific Binding” value (GSK3beta) was -2%, the “Mean / % of Control Specific Binding” value (GSK3beta) was 102.1% and the pEC50 (human OXTR [5]) was 10.60. The “% Inhibition of Control Specific Binding” value (glycine) was 15%, the “Mean / % of Control Specific Binding” value (glycine) was 84.6% and the pEC50 (rat OXTR [6]) was 10.96. For the same compound, the “% Inhibition of Control Specific Binding” value (beta 1) was -5%, the “Mean / % of Control Specific Binding” value (beta 1) was 105.2% and the “% Inhibition of Control Specific Binding” value (M4) was -17%. The “Mean / % of Control Specific Binding” value (M4) was 116.9%, the CPA-induced transcriptomic changes (mPFC transcriptome) was “partially prevented” and the “% Inhibition of Control Specific Binding” value (HIV-1 protease) was 5%. The “Mean / % of Control Specific Binding” value (HIV-1 protease) was 95.3%, the “% Inhibition of Control Specific Binding” value (alpha 1A) was 1% and the “Mean / % of Control Specific Binding” value (alpha 1A) was 98.8%. The “% Inhibition of Control Specific Binding” value (MAO-A) was -15%, the “Mean / % of Control Specific Binding” value (MAO-A) was 115% and the “current-membrane voltage relationship and input resistance after CPA” value [7] was “normalized”. The “differences in passive membrane properties between control and CPA rats” value [7] was “not observed”, the “effect on number of evoked action potentials after CPA” value [7] was “only partially recovered” and the “effect on rheobase after CPA” value [7] was “fully restored”. For the same compound, the “AUC of current-voltage (IV) curve (Fig. 5L)” value ([7]; 0.07 mg/kg) was 36.9 ± 4.56, the “AUC of number of action potentials per current step (Fig. 5J)” value ([7]; sc, 0.07 mg/kg) was 9.79 ± 2.74 and the “input resistance (Rin) at 80 pA (Fig. 5M)” value ([7]; sc, 0.07 mg/kg) was 180.7 MΩ. The “membrane capacitance, Cm (Fig. 5E)” value ([7]; sc, 0.07 mg/kg) was 65.11 pF, the “membrane resistance, Rm (Fig. 5D)” value ([7]; sc, 0.07 mg/kg) was 77.59 MΩ and the “resting membrane potential, Vrest (Fig. 5C)” value ([7]; sc, 0.07 mg/kg) was -66.87 mV. For the same compound, the “rheobase (Fig. 5K)” value ([7]; sc, 0.07 mg/kg) was 209, the “% Inhibition of Control Specific Binding” value (A3) was 4% and the “Mean / % of Control Specific Binding” value (A3) was 96.4%.
